Columns and labels:
Format in all cases: cell-based, human
[1] = system: GCGR-E13; conditions: 72 h
Protocol: (§1) Peptides were tested in an automated image-based high-content[42] cell painting[43],[44] assay that was originally developed to explore the mechanism of action of pharmacological and genetic perturbations within cells,[45] as well as a live cell imaging assay against six patient-derived glioblastoma cell lines (GCGR-E13, GCGR-E28, GCGR-E21, GCGR-E57, GCGR-E31, and GCGR-E34), covering classical, mesenchymal, and proneural subtypes, respectively (see Methods and Figure 1B–D), along with a healthy human fetal neuronal stem cell line (GCGR-NS9FB_B).
(§2) Cell survival was quantified by nuclei counts from the Hoechst dye-stained nuclei and IC50 values calculated along with 95% confidence intervals (Figure 1B; see Table S2 for full details). […]
(§3) High Content Phenotypic Screening assays
(§4) Cell lines (glioma stem cell lines and normal foetal neural stem cells) were seeded on laminin (10 µg/mL) coated 384-well plates (Greiner Bio-One, 781091) at 1,000 cells/well and incubated overnight at 37 °C and 5% CO2. Aqueous peptide solutions (10 mM) were further diluted to 1 mM in water containing 10 % glycerol and 0.01 % TX-100. […]
(§5) The cells were placed in an IncuCyte live cell imager (Essen BioScience) and imaged every three hours for 72 hours. Prior to fixation, the plates were removed from the IncuCyte and stained with Mitrotracker DeepRed (Invitrogen, M22426, 300 nM, 30 minutes). Cells were then fixed using 4 % formaldehyde and permeabilized with 0.1 % TX-100 in PBS. The cells were stained with ‘Cell Painting’ […]
(§6) assay reagents1: Hoechst 33342 (10 mg/mL stock, Molecular Probes, 1:5000), SYTO14 […]
(§7) BSA/PBS. The plates were imaged using an ImageXpress high content microscope (Molecular Devices). Cells were imaged with a 20× objective, covering 6 fields-of-view in each well. The data was then analyzed using a custom CellProfiler software pipeline using the University of Edinburgh high performance computing cluster. Dose response plots were calculated using HC StratomineR (corelifeanalytics.com). Nuclei count data was analyzed separately to generate cell survival metrics (normalized to aqueous glycerol/TX -100 control). […]

[2] = system: GCGR-E21; conditions: 72 h
Protocol: as §1, §2, §3, §4, §5, §6, §7

[3] = system: GCGR-E34; conditions: 72 h
Protocol: as §1, §2, §3, §4, §5, §6, §7

[4] = system: GSK-3; assay: Reverse phase protein array (RPPA); conditions: peptides at 3 μM, 3 h and 24 h (peptide 7: 24 h only), seven cell lines; fold difference vs water control
Excerpt: The phenotypic effect of the peptides was visualized by live cell imaging (Figure 1C, IncuCyte live cell imager) and also quantified via image analysis of cells labeled with the cell painting reagents (see Supporting Information) followed by image analysis using Cell Profiler (cellprofiler.org). Multiparametric outputs from Cell Profiler were processed using Phenonaut[46] [v 2.0.3] (see Jupyter notebook ‘Phenonaut_processing_of_nullomer_data.ipynb’ in the Aminonaut repository for methods and code used). […] Peptides 2, 5, and 7 were deemed to have the most merit for mode of action determination using reverse phase protein arrays (RPPAs) (see Supporting Information for methods). […]
growth and stemness was further supported by the addition of laminin extracellular matrix (Cultrex 3446-005-01, 4-10 mg/mL) to the growth media and to create pre-coated flasks/384w plates. Cells were cultured in T75 cm2 flasks and passaged as follows: Glioma stem cells generally grow slowly (~60hrs doubling time, excepting GCGR-E57 cells ~24hrs) and lag phase was exacerbated by sparse seeding. Cell confluence is generally ~80 -90% prior to passaging, whereby the culture media was aspirated, the cells washed (PBS) and Accutase solution (Sigma A6964, 1 mL) was added to detach the cells, which were then incubated at 37 °C for <5 minutes. Cells were resuspended in media and centrifuged for 3 minutes at 300 × g. Resuspended cells were typically split 1:5, 1:8 (GCGR-E57 cells) and 1:2, 1:4 for the remainder of cell lines, depending on requirements . Cells were passaged every 4-7 days to maintain health and growth and discarded after 3 months, whereupon a fresh batch of cells […]
Reverse Phase Protein Array (RPPA)
Culture media was aspirated and cells washed with wash media. Accutase solution (1mL) was used to detach the cells which were then incubated at 37 °C for 5 minutes. 10 mL of wash media was added, and the cells were pipetted into a 15 mL conical tube, after which they were centrifuged for 3 minutes at 300× g to form a pellet. Supernatant was aspirated, and cells resuspended in 5 mL of wash media. A 10 μL sample of the cell suspension was pipetted onto the reading surface of a DeNovix CellDrop automated cell counter and the reading was used to dilute the suspension in complete media to 250,000 cells/mL. 2 mL of this suspension was added to each well of 6-well plates to seed plates at 500,000 cells per well. 2 plates of each cell type (GCGR-E13, GCGR-E21, GCGR-E28, GCGR-E31, GCGR-E34, GCGR-E57 and GCGR-NS9FB_B) were seeded, one each for two nullomer dosage […]
timepoints (3 h and 24 h). The cells were incubated in the 6-well plates overnight, and dosing was carried out in the following morning. […]

H-RRRRRCQWW-NH2 [Peptide 2]
IC50 [1]: 4.4 µM
IC50 [2]: 4.8 µM
IC50 [3]: 5.2 µM
GSK-3 regulation in RPPA [4]: downregulation of GSK-3β
